Assay results: paper PMC11848559, “Inhibition of CDH11 Activates cGAS‐STING by Stimulating Branched Chain Amino Acid Catabolism and Mitigates Lung Metastasis of Adenoid Cystic Carcinoma” (Advanced Science, 2024)
Read-outs that look alike come from different tables or passages of the source.

Legend:
[1] = biological target: T1, Recombinant Human His-Tagged Cadherin-11 Protein (CDH11) (Homo sapiens, UniProt P55287); assay: surface plasmon resonance (Biacore, CM7 chip, protein immobilised); type: binding
T1 construct: commercial recombinant His-tagged protein (Sino Biological); amine-coupled to CM7 chip
T1 sequence (P55287 54-617 limits assumed): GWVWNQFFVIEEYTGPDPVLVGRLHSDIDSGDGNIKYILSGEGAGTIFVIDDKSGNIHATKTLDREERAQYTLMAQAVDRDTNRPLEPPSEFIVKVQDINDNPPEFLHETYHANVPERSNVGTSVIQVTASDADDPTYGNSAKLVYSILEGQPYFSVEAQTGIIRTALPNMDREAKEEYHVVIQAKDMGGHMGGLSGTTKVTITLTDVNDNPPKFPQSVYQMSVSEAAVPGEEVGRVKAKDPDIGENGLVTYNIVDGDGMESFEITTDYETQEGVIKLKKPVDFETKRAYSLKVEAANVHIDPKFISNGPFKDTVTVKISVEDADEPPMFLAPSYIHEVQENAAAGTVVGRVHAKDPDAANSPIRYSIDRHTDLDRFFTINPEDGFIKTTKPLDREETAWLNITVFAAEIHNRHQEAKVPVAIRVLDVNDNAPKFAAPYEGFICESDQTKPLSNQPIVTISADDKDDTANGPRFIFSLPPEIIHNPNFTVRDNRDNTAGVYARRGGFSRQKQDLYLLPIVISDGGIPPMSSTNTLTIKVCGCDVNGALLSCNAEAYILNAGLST

CDH11 (SACC-83 cells) = biological target: T2, CDH11 (SACC-83 cells) (Homo sapiens, UniProt P55287); assay: cellular thermal shift assay (western blot); type: cell-based; settings: intact cells, 6 h treatment at cell-viability IC50 dose; 53-66 °C, 3 min
T2 construct: endogenous CDH11 in intact SACC-83 cells, untagged, detected by western blot with anti-CDH11 antibody
T2 sequence (P55287 54-796): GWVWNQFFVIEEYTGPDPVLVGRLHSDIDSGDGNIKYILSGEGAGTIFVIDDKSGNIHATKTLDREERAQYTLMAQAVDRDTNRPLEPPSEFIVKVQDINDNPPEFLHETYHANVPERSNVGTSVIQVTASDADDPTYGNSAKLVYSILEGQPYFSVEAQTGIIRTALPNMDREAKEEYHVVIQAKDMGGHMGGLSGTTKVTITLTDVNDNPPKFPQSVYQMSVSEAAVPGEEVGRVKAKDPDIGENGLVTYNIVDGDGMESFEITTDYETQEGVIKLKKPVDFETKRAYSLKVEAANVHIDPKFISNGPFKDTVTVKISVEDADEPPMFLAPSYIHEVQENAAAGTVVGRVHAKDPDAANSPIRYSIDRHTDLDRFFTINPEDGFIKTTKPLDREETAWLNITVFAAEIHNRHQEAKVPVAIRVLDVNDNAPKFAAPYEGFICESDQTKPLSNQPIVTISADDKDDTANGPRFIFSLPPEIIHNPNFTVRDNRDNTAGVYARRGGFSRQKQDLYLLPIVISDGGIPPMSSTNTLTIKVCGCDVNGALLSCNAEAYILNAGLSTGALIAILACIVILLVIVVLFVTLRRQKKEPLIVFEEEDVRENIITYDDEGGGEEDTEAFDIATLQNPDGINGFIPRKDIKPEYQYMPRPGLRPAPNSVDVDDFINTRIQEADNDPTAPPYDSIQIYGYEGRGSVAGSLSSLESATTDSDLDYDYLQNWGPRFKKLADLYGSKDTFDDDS

| Compound | Kd ([1]; 25 °C, analyte 3.125-100 µM) [µM] | cellular thermal shift assay (western blot) (CDH11 (SACC-83 cells)) | Kd [1] [µM] |
| --- | --- | --- | --- |
| SD-133 | 27.4 |  |  |
| Cc1ccc(-c2cc(C(F)(F)F)nn2-c2ccc(S(N)(=O)=O)cc2)cc1 [CXB, Celecoxib] |  | All three compounds exhibited significant binding capability toward CDH11 | 4.67 |
| Cc1ccc(C)c(-c2cc(C(F)(F)F)nn2-c2ccc(S(N)(=O)=O)cc2)c1 [DMC, Dimethylcelecoxib] |  | All three compounds exhibited significant binding capability toward CDH11 | 10.9 |
